Results from US6656459B2, “Compositions of non-ionic block copolymers to treat autoimmune and inflammatory diseases, and to reduce graft/implantation, and methods of use thereof” (priority 2000, dated 2003).

Test system: Collagen-immunized DBA/I mice
Test: collagen-induced arthritis (CIA), frequency and severity of RA symptoms
Assay type: in vivo
Protocol: The anti-RA efficacy of SP1018R (200 μl of F127 and L61 in a ratio of 8:1 at a concentration of 2.25% ) was compared to that of MTX that was given at a human equivalent dose (0.1 mg/kg i.v.), both drugs were given on day 30 and day 37 after the first immunization with collagen. For induction of severe CIA, mice were primed with 500 μl pristane and immunized at day 14 and 21 by administration of 100 μg colagen type II in Freund's complete adjuvant. The control (placebo) and the treated animals were evaluated for RA severity. RA was graded semi-quantitatively on a scale of 0-4 for each paw: 0=no changes; 0.5=significant swelling and redness on one digit; 1=swelling and erythema of 2 digits; 2=mild swelling and erythema of the limb or swelling of more than 2 digits; 3=marked swelling and erythema of the limb; and 4=maximal swelling and redness of the limb and later, ankylosis. […] Rev. Immunol.
The data shown below represent the maximal frequency (%) of animals having developed symptoms of RA and the frequency of animals still having the symptoms of RA at the end of the study. All Pluronics used in all examples were purchased from BASF Co.
Frequency of RA development at various time points during the course of RA development

[1] = Study NG256, given twice (2X; day 30 and day 37)

## CN(Cc1cnc2nc(N)nc(N)c2n1)c1ccc(C(=O)N[C@@H](CCC(=O)O)C(=O)O)cc1 [MTX, methotrexate]
SP1018R 200 μl, MTX 0.1 mg/kg i.v., day 30 and day 37 after first immunization
  RA severity, clinical disease symptoms (scale of 0-4 for each paw): slight therapeutic effect
[1]
  frequency of animals still having the symptoms of RA at the end of the study: 100%
  maximal frequency (%) of animals having developed symptoms of RA: MTX—100%
